Measurements: patent US11879001B2, “Conjugate comprising an IL-2 moiety” (ASCENDIS PHARMA ONCOLOGY DIVISION A/S, priority 2020, dated 2024)
Where “and” joins values, the source holds several entries; their conditions need not be identical. Identical values can stand only once.

What was measured:
human IL-2Rα = target: T1, human IL-2Rα (Homo sapiens, UniProt P01589); assay: Biacore binding to human IL-2Rα-Fc; conditions: independent measurement
T1 construct: purchased
T1 sequence (P01589 22-272): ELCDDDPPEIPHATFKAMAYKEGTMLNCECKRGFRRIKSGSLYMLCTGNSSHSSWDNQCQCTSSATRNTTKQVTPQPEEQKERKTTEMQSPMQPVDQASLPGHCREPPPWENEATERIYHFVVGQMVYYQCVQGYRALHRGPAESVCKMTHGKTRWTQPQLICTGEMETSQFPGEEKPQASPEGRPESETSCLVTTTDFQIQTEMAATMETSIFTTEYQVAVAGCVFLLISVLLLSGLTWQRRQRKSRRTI
Protocol: (§1) Binding affinity/kinetics needed to determine the KD of biased IL-2 to IL-2Rα, the KD of biased IL-2 to IL-2Rβ, the KD of aldesleukin to IL-2Rα and the KD of aldesleukin to IL-2Rβ may be assessed using surface plasmon resonance (SPR), measured on a Biacore instrument (GE Healthcare) as follows: A human Fc capture surface on a CM5 (or alternatively C1 or CM4) chip is prepared by covalent coating with anti-human Fc antibody or alternatively a protein A chip is used. Next, IL-2Rβ-Fc or IL2-Rα-Fc is immobilized on the chip. […] Analytes are each exposed to the receptor-modified chip for a suitable amount of time, such as for 1 to 30 minutes, which may for example be 2 minutes or may be 3 minutes and are then washed away for a suitable amount of time, such as 2 to 60 minutes, which may for example be 10 minutes. The resulting binding curves from the dilution series are fit to a 1:1 kinetic model to correlate observed response units (R) to the association and dissociation rate constants, ka and kd: […]

IL-5 = assay: Serum IL-5 cytokine levels (ELISA or MSD) in treated Cynos; format: in vivo, Cynomolgus macaques; conditions: ~0.044 mg/kg IV x5 daily
Protocol: Two studies were conducted to measure the pharmacodynamic effects of either Aldesleukin (Prometheus, National Drug Code 65483011607) (SEQ ID NO:15) 11 or 5 in Cynos. In the first study, four Cynos ranging in weight from 7.77-10.6 kg (average 9.2 kg) were treated intravenously with five sequential daily 0.4 mg doses of 11 on days 1-5 (average mg/kg: 0.044). In the second study, four Cynos ranging in weight from 2.46-3.69 kg (average 3.13 kg) were treated with a single intravenous dose of either 0.1 mg/kg (n=2) or 0.3 mg/kg (n=2) of 5. All animals were chair trained prior to the study. For both studies, peripheral blood samples were taken before and after treatment at various timepoints as indicated and analyzed for lymphocyte counts, eosinophil counts and cytokines. For animals treated with 5, additional flow cytometry experiments were performed. For measurements of (absolute) lymphocyte counts and eosinophil counts, whole blood was processed on hematology analyzers. For IL-5 and IL-6 cytokine measurements, serum was processed from whole blood and analyzed by ELISA or MSD. […] Cell populations were analyzed using the following phenotypes and gated for percentage of cells which were positive for proliferation marker Ki67.

human IL-2Rβ = target: T2, human IL-2Rβ (Homo sapiens, UniProt P14784); assay: Biacore binding to human IL-2Rβ-Fc
T2 construct: purchased
T2 sequence (P14784 27-551): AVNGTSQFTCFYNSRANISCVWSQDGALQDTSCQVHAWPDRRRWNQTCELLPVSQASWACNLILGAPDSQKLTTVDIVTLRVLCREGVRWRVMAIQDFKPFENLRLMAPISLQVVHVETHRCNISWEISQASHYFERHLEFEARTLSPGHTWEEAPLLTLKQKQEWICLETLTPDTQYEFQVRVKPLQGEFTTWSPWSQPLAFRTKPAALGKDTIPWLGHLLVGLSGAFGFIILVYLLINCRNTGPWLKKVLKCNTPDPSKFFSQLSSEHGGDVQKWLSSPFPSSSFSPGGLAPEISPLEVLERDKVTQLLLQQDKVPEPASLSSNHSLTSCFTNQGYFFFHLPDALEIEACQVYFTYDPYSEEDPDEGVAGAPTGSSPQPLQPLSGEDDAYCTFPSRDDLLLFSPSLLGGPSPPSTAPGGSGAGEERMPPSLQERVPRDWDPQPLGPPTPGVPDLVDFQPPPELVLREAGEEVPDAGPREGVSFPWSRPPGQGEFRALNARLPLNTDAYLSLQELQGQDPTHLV
Protocol: as §1

[1] = test system: peripheral blood lymphocytes and eosinophils; assay: Peripheral blood lymphocyte and eosinophil counts (hematology analyzers) in treated Cynos; format: in vivo, Cynomolgus macaques; conditions: ~0.044 mg/kg IV x5 daily
Protocol: (§2) Two studies were conducted to measure the pharmacodynamic effects of either Aldesleukin (Prometheus, National Drug Code 65483011607) (SEQ ID NO:15) 11 or 5 in Cynos. In the first study, four Cynos ranging in weight from 7.77-10.6 kg (average 9.2 kg) were treated intravenously with five sequential daily 0.4 mg doses of 11 on days 1-5 (average mg/kg: 0.044). In the second study, four Cynos ranging in weight from 2.46-3.69 kg (average 3.13 kg) were treated with a single intravenous dose of either 0.1 mg/kg (n=2) or 0.3 mg/kg (n=2) of 5. All animals were chair trained prior to the study. For both studies, peripheral blood samples were taken before and after treatment at various timepoints as indicated and analyzed for lymphocyte counts, eosinophil counts and cytokines. For animals treated with 5, additional flow cytometry experiments were performed. For measurements of (absolute) lymphocyte counts and eosinophil counts, whole blood was processed on hematology analyzers. For IL-5 and IL-6 cytokine measurements, serum was processed from whole blood and analyzed by ELISA or MSD. For flow cytometry measurements (Immunophenotyping, IPT, FACS), Cynomolgus monkey whole blood was collected in EDTA anticoagulant and kept at room temperature until processed for flow cytometry. Blood was lysed and samples were stained for extracellular surface markers and intracellular phenotypic and lineage markers by standard methods. Cell populations were analyzed using the following phenotypes and gated for percentage of cells which were positive for proliferation marker Ki67.

IL-6 = assay: Serum IL-6 cytokine levels (ELISA or MSD) in treated Cynos; format: in vivo, Cynomolgus macaques; conditions: ~0.044 mg/kg IV x5 daily
Protocol: as §2

[2] = test system: pSTAT5 in Tregs, CD8+ T cells, NK cells; assay: pSTAT5 in lymphocyte subsets of whole human blood (flow cytometry); format: cell-based
Protocol: (§3) To evaluate the cell type specific immunostimulatory effects of 3 in primary human or monkey cells, whole human or cynomolgus monkey blood from two donors each was incubated with various concentrations of 3 or 13 for 30 minutes and analyzed by flow cytometry for intracellular levels of phosphorylated STAT5 (pSTAT5) in unique cell subsets such as Tregs which predominately express IL-2Rα/β/γ as well as CD8+ T cells (CD8) and NK cells which predominately express IL-2Rβ/γ. Additionally, CD8^+ T cells were further analyzed for CD8^+ CD45RA^+ Naïve (CD8 N) as well as CD8^+ CD45RA^− Memory (CD8 M) subsets. Similar experiments were performed with mouse blood using a different panel of mouse specific antibodies. All subsets were analyzed for median fluorescence intensities of pSTAT5 and EC50 values were calculated for each compound across all cell types.

[3] = test system: pSTAT5 in Tregs, CD8+ T cells, NK cells; assay: pSTAT5 in lymphocyte subsets of mouse blood (flow cytometry); format: cell-based
Protocol: [The source words this procedure for another organism and says it was used here with some conditions changed.] as §3, with “Similar experiments were performed with mouse blood using a different panel of mouse specific antibodies.” left out

[4] = test system: pSTAT5 in Tregs, CD8+ T cells, NK cells; assay: pSTAT5 in lymphocyte subsets of whole cynomolgus monkey blood (flow cytometry); format: cell-based
Protocol: as §3

## 11: Aldesleukin, recombinant human Interleukin-2 (SEQ ID NO:15) [Compound 11]
Human IL-2Rα
  KD for IL-2Rα compared with 12: highly comparable KD values
IL-5
  average serum peak IL-5 levels: 117.78 pg/mL
IL-5; Study Day -3
  IL-5: 0.28 pg/mL and 0.1895 pg/mL and 0.2445 pg/mL and 0.233 pg/mL
Human IL-2Rβ; independent measurement
  KD for IL-2Rβ compared with 12: highly comparable KD values
[1]; Day 8
  average fold increase in eosinophil counts: 6.92 fold
  average fold increase in lymphocyte counts: 2.77 fold
[1]; Day 10
  average fold increase in eosinophil counts: 5.94 fold
  average fold increase in lymphocyte counts: 2.79 fold
[1]; Study Day 1
  Lymphocyte Counts: 4995 µL⁻¹ and 4670.6 µL⁻¹ and 4845 µL⁻¹ and 4617.6 µL⁻¹
[1]; Study Day 4
  Lymphocyte Counts: 3739.1 µL⁻¹ and 2646 µL⁻¹ and 2703.2 µL⁻¹ and 3034 µL⁻¹
[1]; Study Day 5
  Lymphocyte Counts: 4144.5 µL⁻¹ and 3990 µL⁻¹ and 3784 µL⁻¹
[1]; Study Day 8
  Lymphocyte Counts: 11186 µL⁻¹ and 11088 µL⁻¹ and 8086 µL⁻¹ and 14958 µL⁻¹
[1]; Study Day 9
  Lymphocyte Counts: 10260 µL⁻¹ and 10045 µL⁻¹ and 9548 µL⁻¹ and 13878 µL⁻¹
[1]; Study Day 10
  Lymphocyte Counts: 8316 µL⁻¹ and 10664 µL⁻¹ and 12079 µL⁻¹ and 14885 µL⁻¹
[1]; Study Day 11
  Lymphocyte Counts: 7304 µL⁻¹ and 9640 µL⁻¹ and 8736 µL⁻¹ and 7720 µL⁻¹
[1]; Study Day 12
  Lymphocyte Counts: 5652 µL⁻¹ and 9520 µL⁻¹ and 8325 µL⁻¹ and 7518 µL⁻¹
[1]; Study Day 15
  Lymphocyte Counts: 6720 µL⁻¹ and 9700 µL⁻¹ and 5468.3 µL⁻¹ and 6198.4 µL⁻¹
[1]; Study Day 19
  Lymphocyte Counts: 2385.6 µL⁻¹ and 3965.5 µL⁻¹ and 2067 µL⁻¹ and 3139.5 µL⁻¹
[1]; Study Day -4 (Baseline)
  Lymphocyte Counts: 4032 µL⁻¹ and 4514.4 µL⁻¹ and 4189.5 µL⁻¹ and 3564 µL⁻¹
[1]; Study Day -5 (Baseline)
  Lymphocyte Counts: 4074 µL⁻¹ and 3530.6 µL⁻¹ and 4719 µL⁻¹ and 4376.3 µL⁻¹
IL-6
  average serum peak IL-6 levels: 58.66 pg/mL
IL-6; Study Day 2.25
  IL-6: 6.79 pg/mL and 9.02 pg/mL and 7.69 pg/mL and 9.95 pg/mL
IL-6; Study Day 5
  IL-6: 0.75 pg/mL and 0.81 pg/mL and 0.46 pg/mL and 0.48 pg/mL
IL-6; Study Day 5.25
  IL-6: 3.67 pg/mL and 3.59 pg/mL and 2.42 pg/mL and 4.21 pg/mL

## 12: unbiased control recombinant human IL-2 (SEQ ID NO:45) [Compound 12]
Human IL-2Rβ; Biacore
  Kd: ~500 nM

## 13: his-tagged mammalian expressed control human IL-2 (SEQ ID NO:46) [Compound 13]
[2]; additional human blood experiments (Table 29), CD8
  pSTAT5 EC50, CD8: 4.94 ng/mL
[2]; additional human blood experiments (Table 29), NK
  pSTAT5 EC50, NK: 17.59 ng/mL
[2]; additional human blood experiments (Table 29), Treg
  pSTAT5 EC50, Treg: 0.047 ng/mL
[2]; human blood, 30 minutes
  EC50 for pSTAT5 in NK cells: 6.01 ng/ml
  EC50 for pSTAT5 in Tregs: 0.09 ng/ml
[2]; whole human blood, 30 minutes, CD8+ T cells (Table 27)
  pSTAT5 EC50, CD8: 25.69 ng/mL
[3]; mouse CD8 vs human CD8, pSTAT5 EC50
  Fold Potency Loss vs Human, CD8: 935.79
[3]; mouse NK vs human NK, pSTAT5 EC50
  Fold Potency Loss vs Human, NK: 1613.10
[3]; mouse Treg vs human Treg, pSTAT5 EC50
  Fold Potency Loss vs Human, Treg: 4.11
[3]; mouse blood
  EC50 for pSTAT5 in NK cells: 9,694.74 ng/ml
  EC50 for pSTAT5 in Tregs: 0.37 ng/ml
[3]; mouse blood, CD8+ T cells
  pSTAT5 EC50, CD8: 24,040.56 ng/mL
[4]; cynomolgus monkey Treg vs human Treg, pSTAT5 EC50
  Fold Potency Loss vs Human, Treg: 1
[4]; whole cynomolgus monkey blood, 30 minutes, Treg
  pSTAT5 EC50, Treg: 0.09 ng/mL
